Assay results reported in PMC6155662, “Trypanocidal Activity of Quinoxaline 1,4 Di-N-oxide Derivatives as Trypanothione Reductase Inhibitors” (Molecules : A Journal of Synthetic Chemistry and Natural …, 2017).

What was measured:
[1] = tested on: T. cruzi INC-5 epimastigotes; test: Viability (MTT) assay on T. cruzi epimastigotes; type: cell-based, Trypanosoma cruzi; conditions: Trypanosoma cruzi, 24 h, mean and SD of triplicate
Method: In this study, two strains of T. cruzi isolated in Mexico were used. […] Epimastigotes were cultured in vitro in liver infusion-tryptose (LIT) medium supplemented with 10% heat inactivated fetal bovine serum (FBS) (Gibco) and 100 U/mL penicillin-streptomycin (In vitro S.A.), and incubated at 27 °C. CD1 mice, aged 6–8 weeks, were infected with T. cruzi to obtain bloodstream trypomastigote samples.
Viability assays of T. cruzi epimastigotes using 3-(4,5-dimethylthiazol-2-yl)-2,5-diphenyltetrazolium bromide (MTT) were performed. Briefly, the parasites were harvested during the exponential growth phase for a period of five days. In a 96-well microplate 1x10^6 epimastigotes were deposited in brain-heart infusion (BHI) medium supplemented with 10% FBS and 100 U/mL antibiotic-antifungal mixture (Gibco). […] Each well reached a final volume of 100 µL. Each condition was assessed in triplicate. The microplate was incubated for 24 h at 27 °C in darkness. Afterwards, 10 μL of a 5 mg/mL MTT solution was added and the plate was incubated for 20 h at 27 °C. Then 200 μL of 10% dodecyl sulfate (SDS)/0.1% HCl solution was added to dissolve formazan salts; the plate was incubated an additional 4 h. Finally, the plate was read at 570 nm in a spectrophotometer (Multiskan EX Thermo Electron, Taipei, Taiwan). The amount of viable cells was proportional to the amount of formazan produced. […] Later the results were converted to micromolar units. […] As a […] control, parasites were incubated only in culture medium with a 1% DMSO concentration, corresponding to the highest sample dilution of DMSO [34, 35, 36].

[2] = Cytotoxicity assay (Alamar Blue) on macrophages; type: cell-based, murine; conditions: mouse, J774A.1 macrophages, mean and SD of triplicate
Method: The murine macrophage cell line J774.A1 was maintained in culture flasks with RPMI 1640 medium supplemented with 10% FBS, 1% MEM-NEAA medium (Gibco) and 100 U/mL antibiotic-antifungal mixture (Gibco). Cells were incubated at 37 °C with 5% CO2 and humidity. Trypsinized J774.A1 macrophages were washed and viability was assessed by the trypan blue dye (Sigma-Aldrich, Toluca, Edo de Mexico, Mexico) exclusion assay. In a 96-well microplate, 50,000 macrophages were seeded per well and a dose-response assay was performed. Compounds were evaluated using six-fold serial dilutions ranging from 100 µg/mL to 0.3 µg/mL of final concentration. Each compound was tested in triplicate. After 20 h incubation, Alamar Blue was added (10% v/v) and cells were incubated for an additional 4 h period. Results were obtained as previously described and CC50 was calculated. As a negative control of cytotoxicity, cells were incubated only in the presence of 0.1% DMSO [39, 40].

[3] = tested on: T. cruzi bloodstream trypomastigotes INC-5 strain; test: microbe, parasite or virus in culture; type: cell-based; conditions: Trypanosoma cruzi; for CC50: 24 h, bloodstream trypomastigotes, 24 h at 4 °C (called IC50 in abstract), read-out: LC50 INC-5 Strain; for killing at 50 µg/mL: 50 μg/mL, 24 h at 4 °C, infected mouse blood, read-out: % Lysis at 50 μg/mL INC-5 Strain
Method: (§1) In this study, two strains of T. cruzi isolated in Mexico were used. T. cruzi NINOA strain (MHOM/MX/1994/NINOA) was obtained from a patient with acute Chagas disease and T. cruzi INC-5 (MHOM/MX/1994/INC5) was isolated from a patient in the chronic phase of the disease. Epimastigotes were cultured in vitro in liver infusion-tryptose (LIT) medium supplemented with 10% heat inactivated fetal bovine serum (FBS) (Gibco) and 100 U/mL penicillin-streptomycin (In vitro S.A.), and incubated at 27 °C. CD1 mice, aged 6–8 weeks, were infected with T. cruzi to obtain bloodstream trypomastigote samples. Animal experiments were performed according to Norma Oficial Mexicana (NOM-062-Z00-1999) published on 22 August, 2009.
(§2) CD1 female mice 6–8 weeks old were infected with T. cruzi bloodstream trypomastigotes of the INC-5 and NINOA strains. The course of infection continued for 4–6 weeks. At the peak of parasitemia blood was obtained by cardiac puncture using sodium heparin as an anticoagulant. The blood was adjusted to 1 × 10^6 bloodstream trypomastigotes/mL.
(§3) In each well of the 96-well plate, 195 μL of infected blood and 5 μL of quinoxaline 1,4-di-N-oxide derivatives or reference drug dilutions were seeded, with each well reaching a final volume of 200 µL. Each assay was performed in triplicate. Initially, all compounds were tested at 50 μg/mL. […] As a negative control of lysis, wells with untreated blood trypomastigotes were used, and as a positive control, wells with the reference drugs were used. The microplates were incubated at 4 °C for 24 h. Bloodstream trypomastigotes were quantified by the method of Brener-Pizzi, 5 μL of blood were placed on a slide and covered with a coverslip 13 × 13 mm. The mobile protozoa were counted in 15 fields at 40× magnification using an optical microscope. The percentage lysis was determined by comparing the remaining trypomastigotes against the negative control. LC50 was determined with the Probit statistical tool. The results were later converted to micromolar units.

[4] = tested on: T. cruzi bloodstream trypomastigotes NINOA strain; test: microbe, parasite or virus in culture; type: cell-based; conditions: Trypanosoma cruzi; for killing at 50 µg/mL: 50 μg/mL, 24 h at 4 °C, infected mouse blood, read-out: % Lysis at 50 μg/mL NINOA Strain; for LC50: 24 h
Method: as §1, §2, §3

| IC50 [1] | Structure (SMILES) | CC50 at 24 h [2] | CC50 [3] | killing at 50 µg/mL [3] | killing at 50 µg/mL [4] | LC50 [4] |
| --- | --- | --- | --- | --- | --- | --- |
| 42.3 ± 5.76 µM | O=C(Cn1ccnc1[N+](=O)[O-])NCc1ccccc1 [Bnz, benznidazole, reference compound] | 352 ± 17.1 µM | 85.3 ± 16.7 µM | 53.5 ± 5.6% | 58.1 ± 4.5% | – |
| 43.7 ± 8.6 µM | COC(=O)c1c(C)[n+]([O-])c2ccc(C(=O)OC(C)C)cc2[n+]1[O-] [Compound T-064, Isopropyl methyl-3-methyl-quinoxaline-2,7-dicarboxylate 1,4-di-N-oxide] | 135 ± 11.1 µM | – | 1.7 ± 2% | 3.2 ± 2% | – |
| > 148 µM | CCOC(=O)c1c(C)[n+]([O-])c2ccc(C(=O)OC(C)C)cc2[n+]1[O-] [Compound T-065, Isopropyl ethyl-3-methylquinoxaline-2,7-dicarboxylate 1,4-di-N-oxide] | > 296 µM | – | 3.78 ± 5.7% | 0.77 ± 1.58% | – |
| > 137 µM | Cc1c(C(=O)OC(C)(C)C)[n+]([O-])c2cc(C(=O)OC(C)C)ccc2[n+]1[O-] [Compound T-066, Isopropyl tert-butyl-3-methylquinoxaline-2,7-dicarboxylate 1,4-di-N-oxide] | > 273 µM | – | 5.4 ± 3.7% | 2.6 ± 4.3% | – |
| 12.1 ± 0.4 µM | CCOC(=O)Cc1c(C(=O)OCC)[n+]([O-])c2cc(C(=O)OC(C)C)ccc2[n+]1[O-] [Compound T-067, Isopropyl ethyl-3-(2-ethoxy-2-oxoethyl) quinoxaline-2,7-dicarboxylate 1,4-di-N-oxide] | 44.4 ± 7.1 µM | – | 14.4 ± 9.2% | 18.5 ± 2.2% | – |
| 4.95 ± 0.5 µM | CC(C)OC(=O)c1ccc2c(c1)[n+]([O-])c(C(=O)c1cccs1)c(C(F)(F)F)[n+]2[O-] [Compound T-069, Isopropyl 2-(thiophene-2-carbonyl)-3-trifluoromethylquinoxaline-7-carboxylate 1,4-di-N-oxide] | 12.8 ± 0.6 µM | 111 ± 9.3 µM | 77.7 ± 9.3% | 57.3 ± 2.8% | 98 ± 6.1 µM |
| 2.83 ± 0.7 µM | CC(=O)c1c(C(F)(F)F)[n+]([O-])c2ccc(C(=O)OC(C)C)cc2[n+]1[O-] [Compound T-070, Isopropyl 2-acetyl-3-trifluoromethylquinoxaline-7-carboxylate 1,4-di-N-oxide] | 17.5 ± 0.7 µM | – | 10.8 ± 5.4% | 46 ± 2.7% | – |
| 4.03 ± 0.5 µM | CC(C)OC(=O)c1ccc2c(c1)[n+]([O-])c(C(=O)c1ccccc1)c(C(F)(F)F)[n+]2[O-] [Compound T-071, Isopropyl 2-benzoyl-3-trifluoromethylquinoxaline-7-carboxylate 1,4-di-N-oxide] | 6.7 ± 0.8 µM | 103 ± 8.3 µM | 69.2 ± 5.1% | 58.8 ± 4.4% | 97.8 ± 6.3 µM |
| 33.7 ± 9.2 µM | CC(C)OC(=O)c1ccc2c(c1)[n+]([O-])c(C(=O)c1ccco1)c(C(F)(F)F)[n+]2[O-] [Compound T-073, Isopropyl 2-(furyl-2-carbonyl)-3-trifluoromethylquinoxaline-7-carboxylate 1,4-di-N-oxide] | 55.4 ± 2.9 µM | – | 22.1 ± 4.32% | 35 ± 4.5% | – |
| 139 ± 13.5 µM | CCCOC(=O)c1ccc2c(c1)[n+]([O-])c(C(=O)OC)c(C)[n+]2[O-] [Compound T-088, n-Propil methyl-3-methylquinoxaline-2,7-dicarboxylate 1,4-di-N-oxide] | 143 ± 9.7 µM | – | 33.6 ± 6.8% | 16.3 ± 11.1% | – |
| 7.59 ± 1.4 µM | CCCOC(=O)c1ccc2c(c1)[n+]([O-])c(C(=O)c1cccs1)c(C(F)(F)F)[n+]2[O-] [Compound T-089, n-Propil 2-(thiophene-2-carbonyl)-3-trifluoromethylquinoxaline-7-carboxylate 1,4-di-N-oxide] | 7.71 ± 0.7 µM | 122 ± 6.5 µM | 42 ± 6.5% | 51.6 ± 3.4% | 115 ± 8.4 µM |
| 155 ± 12.3 µM | CCCOC(=O)c1ccc2c(c1)[n+]([O-])c(C(=O)OCC)c(C)[n+]2[O-] [Compound T-090, n-Propil ethyl-3-methylquinoxaline-2,7-dicarboxylate 1,4-di-N-oxide] | 146 ± 9.2 µM | – | 47.3 ± 3.3% | 28.6 ± 3.1% | – |
| > 137 µM | CCCOC(=O)c1ccc2c(c1)[n+]([O-])c(C(=O)OC(C)(C)C)c(C)[n+]2[O-] [Compound T-091, n-Propil tert-butyl-3-methylquinoxaline-2,7-dicarboxylate 1,4-di-N-oxide] | > 273 µM | – | 8.15 ± 2.2% | 7.3 ± 3.3% | – |
| > 130 µM | Cc1c(C(=O)Nc2ccccc2)[n+]([O-])c2cc(C(=O)OC(C)C)ccc2[n+]1[O-] [Compound T-097, Isopropyl 2-phenylamide-3-methylquinoxaline-7-carboxylate 1,4-di-N-oxide] | > 261 µM | – | 12.4 ± 5.2% | 12.2 ± 10.9% | – |
| 142 ± 8.3 µM | Cc1c(C(=O)c2ccccc2)[n+]([O-])c2cc(C(=O)OC(C)C)ccc2[n+]1[O-] [Compound T-098, Isopropyl 2-benzoyl-3-methylquinoxaline-7-carboxylate 1,4-di-N-oxide] | 140 ± 8.1 µM | – | 0.34 ± 0.6% | 6.89 ± 5.8% | – |
| 91.7 ± 10.5 µM | CC(C)OC(=O)c1ccc2c(c1)[n+]([O-])c(C(=O)C(C)(C)C)c(C(C)(C)C)[n+]2[O-] [Compound T-107, Isopropyl 2-(tert-butyl-2-carbonyl)-3-tert-butylquinoxaline-7-carboxylate 1,4-di-N-oxide] | 164 ± 7.7 µM | – | 5.32 ± 3.8% | 6.28 ± 4.7% | – |
| 131 ± 12.3 µM | Cc1c(C(N)=O)[n+]([O-])c2cc(C(=O)OC(C)C)ccc2[n+]1[O-] [Compound T-108, Isopropyl 2-amide-3-methyl-quinoxaline-7-carboxilate 1,4-di-N-óxide] | 221 ± 9.4 µM | – | 18.8 ± 2.8% | 12.8 ± 7.2% | – |
| 5.2 ± 2.1 µM | CCOC(=O)c1c(C(F)(F)F)[n+]([O-])c2ccc(C(=O)OC(C)C)cc2[n+]1[O-] [Compound T-116, Isopropyl ethyl-3-trifluoromethylquinoxaline-2,7-dicarboxylate 1,4-di-N-oxide] | 14.5 ± 0.8 µM | – | 17.6 ± 2.6% | 49.9 ± 4% | – |
| 72.2 ± 8 µM | CC(C)OC(=O)c1ccc2c(c1)[n+]([O-])c(C(=O)C(F)(F)C(F)(F)F)c(C(F)(F)F)[n+]2[O-] [Compound T-118, Isopropyl 2-pentafluorocarbonyl-3-trifluoromethylquinoxaline-7-carboxylate 1,4-di N-oxide] | 157 ± 6.3 µM | – | 0% | 34.4 ± 3.1% | – |
